{"source": "patent US12358960B2", "about": "“Selective targeting of ubiquitin- and ubiquitin-like E1-activating enzymes by structurally-stabilized peptides” (Dana-Farber Cancer Institute, Inc., priority 2019, dated 2025)", "key": {"UBA1 [1]": {"molecular_target": "T1, UBA1 (Homo sapiens, UniProt P22314)", "T1 sequence (P22314 1-1058)": "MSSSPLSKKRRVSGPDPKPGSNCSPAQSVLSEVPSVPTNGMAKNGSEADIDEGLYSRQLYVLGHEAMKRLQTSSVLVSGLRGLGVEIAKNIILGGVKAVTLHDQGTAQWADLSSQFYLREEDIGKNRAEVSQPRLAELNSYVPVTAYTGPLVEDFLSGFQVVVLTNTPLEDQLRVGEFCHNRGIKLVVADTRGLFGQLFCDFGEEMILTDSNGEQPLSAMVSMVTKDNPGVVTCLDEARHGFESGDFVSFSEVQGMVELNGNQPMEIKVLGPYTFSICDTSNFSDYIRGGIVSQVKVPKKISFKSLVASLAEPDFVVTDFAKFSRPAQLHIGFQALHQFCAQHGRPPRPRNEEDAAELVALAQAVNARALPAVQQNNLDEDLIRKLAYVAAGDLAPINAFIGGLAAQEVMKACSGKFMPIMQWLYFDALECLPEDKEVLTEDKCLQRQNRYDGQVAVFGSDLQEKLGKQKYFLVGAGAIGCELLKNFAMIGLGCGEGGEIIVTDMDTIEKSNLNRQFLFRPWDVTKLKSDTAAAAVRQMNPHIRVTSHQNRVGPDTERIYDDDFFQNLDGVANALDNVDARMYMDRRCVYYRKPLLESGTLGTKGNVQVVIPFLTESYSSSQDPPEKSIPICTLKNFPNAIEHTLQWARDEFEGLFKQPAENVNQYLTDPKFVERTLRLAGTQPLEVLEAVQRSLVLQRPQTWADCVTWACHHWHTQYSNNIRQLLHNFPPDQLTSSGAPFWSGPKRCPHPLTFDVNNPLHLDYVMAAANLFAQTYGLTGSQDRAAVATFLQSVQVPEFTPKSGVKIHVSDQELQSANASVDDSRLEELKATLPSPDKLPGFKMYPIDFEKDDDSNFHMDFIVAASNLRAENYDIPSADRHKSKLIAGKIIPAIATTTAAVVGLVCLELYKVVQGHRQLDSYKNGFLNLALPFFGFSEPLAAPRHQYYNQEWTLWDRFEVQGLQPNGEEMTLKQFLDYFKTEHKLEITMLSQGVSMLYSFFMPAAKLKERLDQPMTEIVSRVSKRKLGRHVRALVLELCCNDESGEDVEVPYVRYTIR", "test": "UBA1~Ub thioester adduct formation (thioester transfer assay gel resolving UBA1 from UBA1~Ub)", "type": "biochemical", "conditions": "all concentrations of peptide"}, "UBA1 [2]": {"molecular_target": "T1, UBA1", "test": "Streptavidin-biotin pull-down with recombinant protein", "type": "binding", "conditions": "biotinylated peptide, silver stain", "procedure": "Streptavidin-biotin pull-down assays: For recombinant protein pull-downs, 10 pmol recombinant human UBA1 was incubated with 5 nmol C-terminally biotinylated SAH-UBE2A or DMSO vehicle control in a total volume of 1 mL binding buffer (50 mM NaCl, 20 mM HEPES, pH 7.4, 5 mM DTT) for 1.5 hours at 4° C. 30 μL of pre-equilibrated streptavidin agarose beads were then added and incubated for an additional 1.5 hours at 4° C. The beads were pelleted by centrifugation and washed three times with NP-40 buffer (20 mM HEPES, pH 7.4, 50 mM NaCl, 5 mM DTT, 0.5% [v/v] NP-40) before eluting the protein sample from the beads by heating at 70° C. for 10 min in 3×SDS loading buffer. Samples were subjected to electrophoresis and silver staining (Pierce 24612). […] Proteins were separated by SDS-PAGE gel electrophoresis and detected by western blot against UBE1 (Abcam ab34711). […] Conjugation of ubiquitin to E2 by E1 is monitored by conversion of free E2 (17 kDa) to E2˜ubiquitin conjugate (26 kDa). Quantitation of percent inhibition was calculated from densitometry of silver stain images. Error bars represent ±1 SEM calculated from three independent experiments."}, "[3]": {"tested_on": "ubiquitin cascade E1 (UBA1), E2 (UBE2A), E3 (HDM2), substrate p53", "test": "In vitro ubiquitin pathway reconstitution assay (p53 ubiquitination)", "type": "biochemical", "conditions": "peptide 30 μM; for ubiquitination of p53 with E2 pre-activated with Ub: pre-activated E2 instead of uncharged E2 and Ub; for ubiquitination of p53 with E1, E2, E3, Ub and ATP: unactivated E2", "procedure": "In Vitro Ubiquitin Pathway Reconstitution Assay: Reactions containing recombinant His-p53 (0.1 μM), in the presence or absence of peptide (30 μM), UBA1 (0.1 μM), UBE2D (1 μM), HDM2 (1 μM), ubiquitin (1 μM) and ATP (10 mM) (all Boston Biochem K-200B), preactivated Ub-UBEA2 (3 μM) (Boston Biochem E2-802), and USP7 (1 μM) (BostonBiochem E-519), as indicated, were mixed and incubated for 2 h at 37° C. in a final volume of […] followed by denaturation by boiling in SDS-containing loading dye for 10 min at 90° C. Samples were resolved by […] gel electrophoresis and transferred to nitrocellulose membrane. Membranes were blocked with 3% milk for 1 h, incubated overnight in PBS containing 3% BSA and mouse p53 antibody (Boston Biochem K-200B) at a 1:1000 dilution, washed in PBS containing 0.1% Tween-20, and then incubated in PBS containing 3% BSA and anti-mouse secondary antibody (BioRad AAC10P) at a 1:5000 dilution for 1 hour at room temperature. Membranes were again washed in PBS containing 0.1% Tween-20 and imaged using Amersham ECL Prime (GE Life Sciences) on an Amersham Imager 680 (GE Life Sciences)."}}, "note": "Bridge positions count the residues as written; N and C are the ends. Square brackets hold non-standard residues; d marks the D form. Peptide text beside a SMILES is read from it. R8 = C=CCCCCCC[C@@](C)(N)C(=O)O; S5 = C=CCCC[C@](C)(N)C(=O)O; Nle = CCCC[C@H](N)C(=O)O", "data": [{"smiles": "CCCC[C@H](NC(C)=O)C(=O)N[C@@H](CO)C(=O)N[C@H](C(=O)N1CCC[C@H]1C(=O)N[C@]1(C)CCCCCCC=CCCC[C@@](C)(C(=O)N[C@@H](Cc2ccccc2)C(=O)N[C@@H](CCCCN)C(=O)N[C@@H](CCCNC(=N)N)C(=O)N[C@@H](CC(C)C)C(=O)N[C@@H](CCC(N)=O)C(N)=O)NC(=O)[C@H](CCCNC(=N)N)NC(=O)[C@H](CCCC)NC(=O)[C@H](CC(C)C)NC(=O)[C@H](CCCNC(=N)N)NC(=O)[C@H](CCCNC(=N)N)NC(=O)[C@H](CCCNC(=N)N)NC1=O)[C@@H](C)O", "note": "[SAH-UBE2A-11, BSTPX1RRRLBRX2FKRLQ] (Ac-[Nle]STP[R8]RRRL[Nle]R[S5]FKRLQ-NH2; staple 5-12)", "values": [{"measurement": "ability of UBA1 to form covalent UBA1~Ub thioester adduct", "setting": "UBA1 [1]", "value": "no effect on the ability of UBA1 to covalently charge itself with ubiquitin"}, {"measurement": "ability of UBA1 to form covalent UBA1~Ub thioester adduct", "setting": "UBA1 [1]; listed as SAH-UBE2A", "value": "no effect on the ability of UBA1 to form a covalent UBA1˜Ub thioester adduct"}, {"measurement": "direct binding to recombinant UBA1, streptavidin capture", "setting": "UBA1 [2]", "value": "direct binding of SAH-UBE2A to UBA1"}, {"measurement": "ubiquitination of p53 with E2 pre-activated with Ub", "setting": "[3]", "value": "no effect on the ubiquitination of p53"}, {"measurement": "ubiquitination of p53 with E2 pre-activated with Ub", "setting": "[3]; listed as SAH-UBE2A", "value": "circumvents the inhibitory activity of SAH-UBE2A"}, {"measurement": "ubiquitination of p53 with E1, E2, E3, Ub and ATP", "setting": "[3]", "value": "inhibited the ubiquitination of p53 protein"}, {"measurement": "ubiquitination of p53 with E1, E2, E3, Ub and ATP", "setting": "[3]; listed as SAH-UBE2A", "value": "inhibits the ubiquitination of p53"}]}]}
